34 compounds from patent US8173682B2, “Substituted pyridones as inhibitors of poly(ADP-ribose) polymerase (PARP)” (Aventis Pharmaceuticals Inc., priority 2004, dated 2012) can be followed below.

The assay concerns the target recombinantly expressed human PARP-1 enzyme (Homo sapiens, UniProt P09874). Kind of assay: PARP enzyme assay, Method B (tritium-labeled NAD incorporation). It counts as biochemical. On the procedure: Method B: PARP Enzyme Assay:
The IC50 is determined in this method by incubating the substances to be tested with the DNA-activated, recombinantly expressed and purified PARP-1 enzyme. Specifically, various concentrations of the test substance are incubated in 50 μL of reaction solution, which contains 50 mM Tris, 5 mM MgCl2, 1 mM DTT, 200 μM NAD, 0.1 m Ci/mL tritium-labeled NAD, 0.1 mg/mL DNA, 0.1 mg/mL histones, 2 μg/mL recombinantly expressed human PARP-1 enzyme, pH=8.0, at room temperature for 1 hour. The reaction is stopped by adding 150 μL of 20% trichloroacetic acid, and the radiolabeled protein constituents are precipitated. After incubation on ice for 10 minutes, the labeled, insoluble constituents are separated off through a glass fiber filter and, after washing with 20% trichloroacetic acid three times, the radioactivity incorporated by the PARP-1 enzyme is measured by radioluminescence. Consideration of the incorporation rates determined in this way as a function of the concentration of the test substance results in IC50 as the concentration of the test substance which reduces the incorporation rate to half the maximum value attainable (incubation without inhibitor).
The IC50 (fifty percent inhibitory concentration of the test substance in a solution—expressed at micromolar (μM) concentration) measured in accordance with these procedures for the compounds of this invention are summarized in Table 1.

Where [1] appears, read: Method B, 200 μM NAD, room temperature 1 hour, pH 8.0, read-out: IC50 (μM)/Method B.

Structures are written as SMILES. Counter-ions that a name gives are not always drawn. Like-named read-outs stand apart in the source and are kept apart here.

Sequence of recombinantly expressed human PARP-1 enzyme (P09874 whole entry): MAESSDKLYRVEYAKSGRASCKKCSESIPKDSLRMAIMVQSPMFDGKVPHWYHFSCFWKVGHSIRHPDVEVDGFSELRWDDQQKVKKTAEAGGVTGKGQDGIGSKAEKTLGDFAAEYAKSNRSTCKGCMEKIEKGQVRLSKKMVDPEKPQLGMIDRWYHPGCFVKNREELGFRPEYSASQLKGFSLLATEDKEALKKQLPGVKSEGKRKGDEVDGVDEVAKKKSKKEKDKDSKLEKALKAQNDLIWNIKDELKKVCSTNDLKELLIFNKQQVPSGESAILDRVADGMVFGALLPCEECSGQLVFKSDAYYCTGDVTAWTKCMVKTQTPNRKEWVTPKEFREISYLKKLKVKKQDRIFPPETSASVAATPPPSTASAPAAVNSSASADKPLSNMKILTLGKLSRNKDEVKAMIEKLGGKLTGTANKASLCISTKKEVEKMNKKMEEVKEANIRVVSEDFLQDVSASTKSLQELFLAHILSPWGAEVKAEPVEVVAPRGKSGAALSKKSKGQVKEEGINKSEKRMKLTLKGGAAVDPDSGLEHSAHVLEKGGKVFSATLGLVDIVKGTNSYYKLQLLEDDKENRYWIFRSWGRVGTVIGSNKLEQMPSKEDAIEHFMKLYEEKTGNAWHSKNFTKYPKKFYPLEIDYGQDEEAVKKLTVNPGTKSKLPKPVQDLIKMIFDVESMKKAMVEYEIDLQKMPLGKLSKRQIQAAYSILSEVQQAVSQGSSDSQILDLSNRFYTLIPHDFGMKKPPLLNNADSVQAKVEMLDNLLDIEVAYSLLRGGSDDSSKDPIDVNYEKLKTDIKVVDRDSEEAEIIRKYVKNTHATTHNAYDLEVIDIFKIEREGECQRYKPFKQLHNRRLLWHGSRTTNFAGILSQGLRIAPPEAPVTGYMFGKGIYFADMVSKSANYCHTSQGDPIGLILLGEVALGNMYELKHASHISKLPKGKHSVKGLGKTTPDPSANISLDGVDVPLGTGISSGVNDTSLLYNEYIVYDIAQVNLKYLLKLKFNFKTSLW

Turning to `CCc1cc(-c2cncc(C(=O)NCCC3CCOCC3)c2)c(C)[nH]c1=O` [Example 242, 5′-Ethyl-2′-methyl-6′-oxo-1′,6′-dihydro-[3,3′]bipyridinyl-5-carboxylic acid [2-(tetrahydro-pyran-4-yl)-ethyl]-amide], under setting [1], the IC50 came out at 1.79 µM. On the same count and under the same terms, then `CCc1cc(-c2cncc(C(=O)N(CC)CC)c2)c(C)[nH]c1=O` [Example 227, 5′-Ethyl-2′-methyl-6′-oxo-1′,6′-dihydro-[3,3′]bipyridinyl-5-carboxylic acid diethylamide], with 1.98 µM; and `CCc1cc(-c2cncc(C(=O)N(CC)Cc3ccncc3)c2)c(C)[nH]c1=O` [Example 235, 5′-Ethyl-2′-methyl-6′-oxo-1′,6′-dihydro-[3,3′]bipyridinyl-5-carboxylic acid ethyl-pyridin-4-ylmethyl-amide], with 1.86 µM; and `CCc1cc(-c2cncc(C(=O)N3CCCC3)c2)c(C)[nH]c1=O` [Example 226, 5-Ethyl-2-methyl-5′-(pyrrolidine-1-carbonyl)-1H-[3,3′]bipyridinyl-6-one], with 0.95 µM. Same read-out and setting: then `CCc1cc(-c2coc(CN3CCCC3)c2)c(C)[nH]c1=O` [Example 181A], with 2.17 µM; and `CCc1cc(-c2cncc(C(=O)NCCOC)c2)c(C)[nH]c1=O` [Example 261, 5′-Ethyl-2′-methyl-6′-oxo-1′,6′-dihydro-[3,3′]bipyridinyl-5-carboxylic acid (2-methoxy-ethyl)-amide], with 2.07 µM; and `CCc1cc(-c2ccc(S(=O)(=O)NCc3ccccn3)s2)c(C)[nH]c1=O` [Example 31, 5-(5-Ethyl-2-methyl-6-oxo-1,6-dihydropyridin-3-yl)thiophene-2-sulfonic acid (pyridin-2-yl)methylamide hydrochloride], with 0.44 µM. Consider `CCc1cc(-c2ccc(S(=O)(=O)NCCc3ccccn3)s2)c(C)[nH]c1=O` [Example 43A, 5-(5-Ethyl-2-methyl-6-oxo-1,6-dihydropyridin-3-yl)thiophene-2-sulfonic acid 2-(pyridin-2-yl)ethylamide], for which the IC50 under setting [1] came out at 0.67 µM.

Regarding `CCc1cc(-c2ccc(CNC(=O)c3ccccn3)o2)c(C)[nH]c1=O` [Example 273, Pyridine-2-carboxylic acid [5-(5-ethyl-2-methyl-6-oxo-1,6-dihydro-pyridin-3-yl)-furan-2-ylmethyl]-amide], the IC50 under setting [1] turned out to be 1.4 µM.

Turning to `CCc1cc(-c2cncc(C(=O)NCCc3ccc(C(=O)O)cc3)c2)c(C)[nH]c1=O` [Example 243, 4-{2-[(5′-Ethyl-2′-methyl-6′-oxo-1′,6′-dihydro-[3,3′]bipyridinyl-5-carbonyl)-amino]-ethyl}-benzoic acid], under setting [1], the IC50 amounted to 2.29 µM. Regarding `CCc1cc(-c2cncc(C(=O)NCC3CC(c4ccncc4)=NO3)c2)c(C)[nH]c1=O` (stereo not shown) [Example 257, 5′-Ethyl-2′-methyl-6′-oxo-1′,6′-dihydro-[3,3′]bipyridinyl-5-carboxylic acid (3-pyridin-4-yl-4,5-dihydro-isoxazol-5-ylmethyl)-amide], the IC50 under setting [1] was found to be 0.57 µM.

Consider `CCc1cc(-c2cccc(CN3CCC(N4CCCC4)CC3)n2)c(C)[nH]c1=O` [Example 182K, 5′-Ethyl-2′-methyl-6-(4-pyrrolidin-1-yl-piperidin-1-ylmethyl)-1′H-[2,3′]bipyridinyl-6′-one], for which, under setting [1], the IC50 came out at 4.23 µM. On the same count and under the same terms, then `CCc1cc(-c2ccc(CNC(=O)Cc3ccccc3)o2)c(C)[nH]c1=O` [Example 270, N-[5-(5-Ethyl-2-methyl-6-oxo-1,6-dihydro-pyridin-3-yl)-furan-2-ylmethyl]-2-phenyl-acetamide], with 1.18 µM; and `CCc1cc(-c2cncc(C(=O)NCCc3ccncc3)c2)c(C)[nH]c1=O` [Example 238, 5′-Ethyl-2′-methyl-6′-oxo-1′,6′-dihydro-[3,3′]bipyridinyl-5-carboxylic acid (2-pyridin-4-yl-ethyl)-amide], with 0.35 µM; and `CCc1cc(-c2cncc(C(=O)NCC(N)=O)c2)c(C)[nH]c1=O` [Example 225, 5′-Ethyl-2′-methyl-6′-oxo-1′,6′-dihydro-[3,3′]bipyridinyl-5-carboxylic acid carbamoylmethyl-amide], with 5.5 µM. For `CCc1cc(-c2cncc(C(=O)NCc3ccccn3)c2)c(C)[nH]c1=O` [Example 221, 5′-Ethyl-2′-methyl-6′-oxo-1′,6′-dihydro-[3,3′]bipyridinyl-5-carboxylic acid (pyridin-2-ylmethyl)-amide], under setting [1], the IC50 was found to be 2.04 µM. On the same count and under the same terms, then `CCc1cc(-c2cncc(C(=O)NCCc3ccc(S(N)(=O)=O)cc3)c2)c(C)[nH]c1=O` [Example 237, 5′-Ethyl-2′-methyl-6′-oxo-1′,6′-dihydro-[3,3′]bipyridinyl-5-carboxylic acid [2-(4-sulfamoyl-phenyl)-ethyl]-amide], with 1.34 µM; and `CCc1cc(-c2ccc(S(=O)(=O)NCc3ccccc3)s2)c(C)[nH]c1=O` [Example 122A, 5-(5-Ethyl-2-methyl-6-oxo-1,6-dihydro-pyridin-3-yl)-thiophene-2-sulfonic acid benzylamide], with 1.22 µM. Still for that read-out and setting: then `CCc1cc(-c2ccc(S(=O)(=O)NC(C)c3ccccn3)s2)c(C)[nH]c1=O` (stereo not shown) [Example 43, 5-(5-Ethyl-2-methyl-6-oxo-1,6-dihydropyridin-3-yl)thiophene-2-sulfonic acid 1-(pyridin-2-yl)ethylamide hydrochloride], with 0.21 µM; and `CCc1cc(-c2cccc(NS(=O)(=O)c3ccc(NC(C)=O)cc3)n2)c(C)[nH]c1=O` [Example 278, N-[4-(5′-Ethyl-2′-methyl-6′-oxo-1′,6′-dihydro-[2,3′]bipyridinyl-6-ylsulfamoyl)-phenyl]-acetamide], with 7.9 µM; and `CCc1cc(-c2ccc(C(=O)N3CCC(O)C3)cn2)c(C)[nH]c1=O` (stereo not shown) [Example 210, 5′-Ethyl-5-(3-hydroxy-pyrrolidine-1-carbonyl)-2′-methyl-1′H-[2,3′]bipyridinyl-6′-one], with 12.1 µM. The same measure, in the same setting: the same measure for `CCc1cc(-c2cc(C(=O)NCCc3ccncc3)ccn2)c(C)[nH]c1=O` [Example 218, 5′-Ethyl-2′-methyl-6′-oxo-1′,6′-dihydro-[2,3′]bipyridinyl-4-carboxylic acid (2-pyridin-4-yl-ethyl)-amide]: 0.58 µM; for `CCCCNC(=O)c1ccc(-c2cc(CC)c(=O)[nH]c2C)nc1` [Example 209, 5′-Ethyl-2′-methyl-6′-oxo-1′,6′-dihydro-[2,3′]bipyridinyl-5-carboxylic acid butylamide]: 13 µM. Consider `CCc1cc(-c2cncc(C(=O)NCCN3CCOCC3)c2)c(C)[nH]c1=O` [Example 241, 5′-Ethyl-2′-methyl-6′-oxo-1′,6′-dihydro-[3,3′]bipyridinyl-5-carboxylic acid (2-morpholin-4-yl-ethyl)-amide], for which, under setting [1], the IC50 is 1.25 µM. `CCc1cc(-c2cncc(C(=O)NC(CC)c3ccc(C)nc3)c2)c(C)[nH]c1=O` (stereo not shown) [Example 224, 5′-Ethyl-2′-methyl-6′-oxo-1′,6′-dihydro-[3,3′]bipyridinyl-5-carboxylic acid [1-(6-methyl-pyridin-3-yl)-propyl]-amide]: the IC50 under setting [1] came to 5.9 µM.

For `CCc1cc(-c2ccc(CNCc3ccccc3)o2)c(C)[nH]c1=O` [Example 123, 5-[5-(Benzylamino-methyl)-furan-2-yl]-3-ethyl-6-methyl-1H-pyridin-2-one hydrochloride], under setting [1], the IC50 was determined as 0.58 µM. On to `CCc1cc(-c2cncc(C(=O)N3CCC(=O)CC3)c2)c(C)[nH]c1=O` [Example 234, 5-Ethyl-2-methyl-5′-(4-oxo-piperidine-1-carbonyl)-1H-[3,3′]bipyridinyl-6-one], for which the IC50 amounted to 2.46 µM. On to `CCc1cc(-c2ccc(CN(C)Cc3ccccc3)o2)c(C)[nH]c1=O` [Example 179, 5-{5-[(Benzylmethylamino)methyl]furan-2-yl)-3-ethyl-6-methyl-1H-pyridin-2-one], for which the IC50 under setting [1] is 2.11 µM.

With `CCc1cc(-c2cncc(C(=O)NCc3ccccc3)c2)c(C)[nH]c1=O` [Example 220, 5′-Ethyl-2′-methyl-6′-oxo-1′,6′-dihydro-[3,3′]bipyridinyl-5-carboxylic acid benzylamide], the IC50 under setting [1] stood at 1.27 µM. The same measure, in the same setting: the same measure for `CCc1cc(-c2cncc(C(=O)N[C@H]3CC=CC[C@H]3C(N)=O)c2)c(C)[nH]c1=O` [Example 260, 5′-Ethyl-2′-methyl-6′-oxo-1′,6′-dihydro-[3,3′]bipyridinyl-5-carboxylic acid ((1S,6R)-6-carbamoyl-cyclohex-3-enyl)-amide]: 0.8 µM; for `CCc1cc(-c2ccc(S(=O)(=O)NCc3ccc(OC)cc3)s2)c(C)[nH]c1=O` [Example 122B, 5-(5-Ethyl-2-methyl-6-oxo-1,6-dihydro-pyridin-3-yl)-thiophene-2-sulfonic acid 4-methoxy-benzylamide]: 0.13 µM. Same read-out and setting: the same measure for `CCc1cc(-c2cncc(C(=O)Nc3cc(C(C)(C)C)[nH]n3)c2)c(C)[nH]c1=O` [Example 258, 5′-Ethyl-2′-methyl-6′-oxo-1′,6′-dihydro-[3,3′]bipyridinyl-5-carboxylic acid (5-tert-butyl-1H-pyrazol-3-yl)-amide]: 0.62 µM. Still for that read-out and setting: then `CCc1cc(-c2ccc(C=NO)o2)c(C)[nH]c1=O` [Example 199A, 5-(5-Ethyl-2-methyl-6-oxo-1,6-dihydro-pyridin-3-yl)-furan-2-carbaldehyde oxime], with 0.51 µM; and `CCc1cc(-c2ccc(CN3CCCC3)o2)c(C)[nH]c1=O` [Example 181], with 0.49 µM.
